These results are taken from ChEMBL document CHEMBL2380208, “Novel quinoline derivatives as inhibitors of bacterial DNA gyrase and topoisomerase IV” (Bioorg Med Chem Lett, 2013).

Data set [1] has as its system Staphylococcus aureus. Nature of the data set: Antibacterial activity against fluoroquinolone-resistant Staphylococcus aureus 1095. It counts as functional.
Data set [2] is described as follows: Clearance in rat at 2 mg/kg, iv and 5 mg/kg, po. The conditions noted are these: in vivo. It counts as ADME, organism-based.
Data set [3] can be described thus: Inhibition of Staphylococcus aureus DNA topoisomerase 4.
In data set [4] the test system is Staphylococcus aureus. The experiment in a line: Antibacterial activity against Staphylococcus aureus 1146. The format is functional.
Data set [5] can be described thus: Inhibition of human DNA topoisomerase 4.
Data set [6] in a line: Volume of distribution at steady state in rat at 2 mg/kg, iv and 5 mg/kg, po. The format is ADME, organism-based. The conditions noted are these: in vivo, read-out: Vdss.
A further data set concerns the target DNA gyrase (Staphylococcus aureus, UniProt P0A0K8+P20831). The experiment in a line: Inhibition of Staphylococcus aureus DNA gyrase. The format is protein-complex assay.
Data set [7] has as its target Voltage-gated inwardly rectifying potassium channel KCNH2 (Homo sapiens, UniProt Q12809). The experiment in a line: Inhibition of human ERG channel in HEK293 cells by voltage-gated patch clamp technique. It counts as cell-based.
Data set [8] concerns Staphylococcus aureus. The experiment in a line: Antibacterial activity against fluoroquinolone-resistant Staphylococcus aureus harboring DNA gyrase M121K mutant. The format is functional.
Data set [9] can be described thus: Oral bioavailability in rat at 5 mg/kg. The format is ADME, organism-based. The settings on record: in vivo.
Data set [10] deals with Streptococcus pyogenes. The experiment in a line: Antibacterial activity against Streptococcus pyogenes. It counts as functional.
In data set [11] the test system is Staphylococcus aureus. Nature of the data set: Antibacterial activity against fluoroquinolone-resistant Staphylococcus aureus 1095 infected in mouse assessed as survival compound administered 0.5 to 4 hrs post-infection measured after 7 days. The format is functional. The conditions noted are these: read-out: PD50.
Data set [12] relates to Staphylococcus aureus. The experiment in a line: Antibacterial activity against Staphylococcus aureus. It counts as functional.
In data set [13] the test system is Staphylococcus aureus. Nature of the data set: Antibacterial activity against fluoroquinolone-resistant Staphylococcus aureus harboring DNA gyrase D83N mutant. It counts as functional.
Data set [14] is described as follows: Inhibition of Streptococcus pneumoniae DNA gyrase.
The nature of data set [15]: Inhibition of Streptococcus pneumoniae topoisomerase 4.
In data set [16] the target is DNA gyrase subunit A (Staphylococcus aureus, UniProt P20831, D83N). The experiment in a line: Inhibition of Staphylococcus aureus DNA gyrase D83N mutant.
Data set [17] concerns the target DNA gyrase subunit A (Staphylococcus aureus, UniProt P20831, M121K). The experiment in a line: Inhibition of Staphylococcus aureus DNA gyrase M121K mutant.
In data set [18] the test system is Streptococcus pyogenes. Nature of the data set: Antibacterial activity against Streptococcus pyogenes 02C0203 infected in mouse assessed as survival compound administered 0.5 to 4 hrs post-infection measured after 7 days. The settings on record: 02C0203, in Mus musculus, read-out: PD50.

≈ marks a conversion by molar mass, not a printed value.

Sequence of Voltage-gated inwardly rectifying potassium channel KCNH2 (Q12809 whole entry): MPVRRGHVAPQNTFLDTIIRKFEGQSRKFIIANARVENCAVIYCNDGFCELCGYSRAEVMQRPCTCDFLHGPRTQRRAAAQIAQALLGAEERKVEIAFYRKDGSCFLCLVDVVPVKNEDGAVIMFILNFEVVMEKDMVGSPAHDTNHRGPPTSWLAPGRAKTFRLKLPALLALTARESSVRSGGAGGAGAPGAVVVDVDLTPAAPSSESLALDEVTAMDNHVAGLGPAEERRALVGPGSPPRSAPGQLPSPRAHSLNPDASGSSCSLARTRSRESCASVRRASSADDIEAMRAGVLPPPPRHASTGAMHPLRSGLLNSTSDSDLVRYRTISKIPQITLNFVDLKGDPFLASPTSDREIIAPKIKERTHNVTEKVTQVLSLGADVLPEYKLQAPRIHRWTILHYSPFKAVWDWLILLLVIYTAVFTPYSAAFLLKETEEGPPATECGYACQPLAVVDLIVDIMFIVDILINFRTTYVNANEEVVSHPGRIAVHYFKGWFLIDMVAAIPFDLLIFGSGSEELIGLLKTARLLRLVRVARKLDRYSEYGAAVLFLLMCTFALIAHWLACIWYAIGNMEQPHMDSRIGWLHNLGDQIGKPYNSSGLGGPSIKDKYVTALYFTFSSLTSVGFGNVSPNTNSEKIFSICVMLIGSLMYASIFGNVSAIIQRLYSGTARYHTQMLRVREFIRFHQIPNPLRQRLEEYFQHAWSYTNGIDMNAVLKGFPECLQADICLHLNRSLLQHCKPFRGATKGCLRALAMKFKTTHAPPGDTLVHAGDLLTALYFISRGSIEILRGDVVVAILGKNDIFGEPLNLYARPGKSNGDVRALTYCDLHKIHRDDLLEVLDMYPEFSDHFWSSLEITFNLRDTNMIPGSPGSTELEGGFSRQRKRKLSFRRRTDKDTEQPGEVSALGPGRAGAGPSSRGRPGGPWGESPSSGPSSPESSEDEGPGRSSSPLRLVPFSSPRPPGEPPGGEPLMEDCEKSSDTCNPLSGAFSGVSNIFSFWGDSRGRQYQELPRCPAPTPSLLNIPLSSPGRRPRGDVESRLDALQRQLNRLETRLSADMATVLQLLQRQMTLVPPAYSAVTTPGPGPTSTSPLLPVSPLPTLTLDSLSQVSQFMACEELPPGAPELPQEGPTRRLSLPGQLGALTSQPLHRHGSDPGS

As for `COc1ccc2ncc(F)c([C@@H](O)CC[C@@H]3CCN(CCSc4cccs4)C[C@@H]3C(=O)O)c2c1`, the MIC against Staphylococcus aureus [1] was 0.125 µg/mL (≈ 0.248 µM); against Staphylococcus aureus [4], at most 0.063 µg/mL; with Staphylococcus aureus [8] it was 64 µg/mL (≈ 127 µM); in the data set with Staphylococcus aureus [13], 32 µg/mL (≈ 63.4 µM). Also, the clearance in [2] is 32.7 mL/min/kg. Further, the IC50 in [3] is 30.4 µM; in data set [5], above 200 µM; on DNA gyrase, 1.56 µM; in [7], 23.6 µM. Besides, in data set [6], the Vd came to 2.55 L/kg. This compound gave a bioavailability in data set [9] of 31.5%. The MIC90 with Streptococcus pyogenes [10] amounted to 0.25 µg/mL (≈ 0.495 µM); against Staphylococcus aureus [12], 0.125 µg/mL (≈ 0.248 µM). The ED50 in the data set on Staphylococcus aureus [11] came out at 22.1 mg/kg.

`COc1ccc2nccc([C@@H](O)CC[C@@H]3CCN(CCSc4cccs4)C[C@@H]3C(=O)O)c2c1`: the MIC in the data set on Staphylococcus aureus [1] is 0.1 µg/mL (≈ 0.205 µM); against Staphylococcus aureus [4], 0.068 µg/mL (≈ 0.14 µM); against Staphylococcus aureus [8], above 64 µg/mL; in the data set on Staphylococcus aureus [13], above 64 µg/mL. The IC50 in data set [14] is 5.85 µM; in [3], 84.6 µM; in [5], above 200 µM; against DNA gyrase, 2.42 µM; in data set [15] it was 6.54 µM. For the same compound, the ED50 with Staphylococcus aureus [11] was 34.7 mg/kg.

As for `COc1ccc2nccc(C(O)CC[C@@H]3CCN(C/C=C/c4cc(F)ccc4F)C[C@@H]3C(=O)O)c2c1` (some centres undefined), the MIC turned out to be 0.5 µg/mL (≈ 1.01 µM) against Staphylococcus aureus [1], 0.25 µg/mL (≈ 0.503 µM) against Staphylococcus aureus [4], 13 µg/mL (≈ 26.2 µM) in the data set on Staphylococcus aureus [8] and 10 µg/mL (≈ 20.1 µM) against Staphylococcus aureus [13]. Further, the IC50 worked out at 6.25 µM in data set [14]; 8.84 µM in [3]; 100 µM in [5]; 7.66 µM on DNA gyrase; 3.75 µM in data set [15].

Consider `COc1ccc2nccc([C@@H](O)CC[C@@H]3CCN(C4CC(c5ccccc5)C4)C[C@@H]3C(=O)O)c2c1` (some centres undefined), for which the minimum inhibitory concentration (MIC) against Staphylococcus aureus [1] is 0.2 µg/mL (≈ 0.421 µM); with Staphylococcus aureus [4], 0.09 µg/mL (≈ 0.19 µM); in the data set on Staphylococcus aureus [8], at least 64 µg/mL; against Staphylococcus aureus [13] it was at least 32 µg/mL. For the same compound, the clearance in data set [2] turned out to be 43.1 mL/min/kg. In addition, the half-inhibitory concentration (IC50) is above 200 µM at DNA gyrase subunit A [16]; 8.84 µM in [14]; above 200 µM against DNA gyrase subunit A [17]; 32.1 µM in data set [3]; above 200 µM in data set [5]; 1.19 µM against DNA gyrase. Besides, the figures for the IC50 in data set [7] and in [15] were 24.9 µM and 8.37 µM, respectively. The results for the ED50 with Streptococcus pyogenes [18] and in the data set with Staphylococcus aureus [11] were 14.1 mg/kg and 6.9 mg/kg, respectively. For the same compound, the Vd in [6] is 1.24 L/kg. In [9], this compound gave a bioavailability of 27%. Further, the MIC90 with Streptococcus pyogenes [10] came to 1 µg/mL (≈ 2.11 µM); in the data set on Staphylococcus aureus [12], 0.25 µg/mL (≈ 0.527 µM).

Take `COc1ccc2nccc([C@H](O)CC[C@@H]3CCN(C4CC(c5ccccc5)C4)C[C@@H]3C(=O)O)c2c1` (some centres undefined): the IC50 is 21.7 µM in data set [14], above 200 µM in [5] and 30 µM in data set [15]. This compound also displayed an MIC in the data set on Staphylococcus aureus [4] of 0.23 µg/mL (≈ 0.485 µM).

As for `COc1ccc2nccc([C@@H](O)CC[C@@H]3CCN(C4CC(c5ccccc5F)C4)C[C@@H]3C(=O)O)c2c1` (some centres undefined), the MIC is at most 0.0625 µg/mL in the data set with Staphylococcus aureus [1], at most 0.0625 µg/mL with Staphylococcus aureus [4], above 64 µg/mL with Staphylococcus aureus [8] and 64 µg/mL (≈ 130 µM) in the data set with Staphylococcus aureus [13]. In addition, the IC50 in [3] was determined as 37 µM; on DNA gyrase, 12.5 µM.

On to `COc1ccc2nccc([C@@H](O)CC[C@@H]3CCN(C4CC(c5cccc(F)c5)C4)C[C@@H]3C(=O)O)c2c1` (some centres undefined), for which the MIC against Staphylococcus aureus [1] is 0.125 µg/mL (≈ 0.254 µM); against Staphylococcus aureus [4] it was at most 0.0625 µg/mL; with Staphylococcus aureus [8], 32 µg/mL (≈ 65 µM); in the data set with Staphylococcus aureus [13], 32 µg/mL (≈ 65 µM). In addition, the IC50 is 38 µM in [3] and 1.56 µM at DNA gyrase.

As to `COc1ccc2nccc([C@@H](O)CC[C@@H]3CCN(C4CC(c5c(F)cccc5F)C4)C[C@@H]3C(=O)O)c2c1` (some centres undefined), the MIC in the data set with Staphylococcus aureus [1] was found to be 0.25 µg/mL (≈ 0.49 µM); in the data set on Staphylococcus aureus [4], 0.125 µg/mL (≈ 0.245 µM); in the data set with Staphylococcus aureus [8], 23 µg/mL (≈ 45 µM); against Staphylococcus aureus [13], 32 µg/mL (≈ 62.7 µM). In data set [2], the clearance was found to be 39.7 mL/min/kg. For the same compound, the IC50 in data set [3] is above 100 µM; against DNA gyrase, 2.93 µM. The ED50 in the data set with Streptococcus pyogenes [18] turned out to be 22 mg/kg; in the data set on Staphylococcus aureus [11] it was 16.3 mg/kg. Besides, the Vd in data set [6] amounted to 3 L/kg. In addition, the values for the MIC90 with Streptococcus pyogenes [10] and against Staphylococcus aureus [12] were 1 µg/mL (≈ 1.96 µM) and 0.25 µg/mL (≈ 0.49 µM), respectively.

Regarding `COc1ccc2nccc([C@@H](O)CC[C@@H]3CCN(C4CC(c5cc(F)ccc5F)C4)C[C@@H]3C(=O)O)c2c1` (some centres undefined), the MIC with Staphylococcus aureus [1] came out at 0.5 µg/mL (≈ 0.979 µM); with Staphylococcus aureus [4], 0.25 µg/mL (≈ 0.49 µM); against Staphylococcus aureus [8], 5.7 µg/mL (≈ 11.2 µM); with Staphylococcus aureus [13] it was 10 µg/mL (≈ 19.6 µM). For the same compound, the clearance in data set [2] was 43.9 mL/min/kg. The 50% inhibitory concentration (IC50) in data set [3] was found to be 9.62 µM; against DNA gyrase it was 3 µM; in data set [7], 9.97 µM. Moreover, the ED50 is 32.5 mg/kg in the data set with Streptococcus pyogenes [18] and 28.2 mg/kg in the data set on Staphylococcus aureus [11]. Further, the Vd in [6] turned out to be 1.3 L/kg. This compound also registered a bioavailability in [9] of 47%. Also, the MIC90 came to 1 µg/mL (≈ 1.96 µM) in the data set on Streptococcus pyogenes [10] and 0.25 µg/mL (≈ 0.49 µM) against Staphylococcus aureus [12].

As for `COc1ccc2nccc([C@@H](O)CC[C@@H]3CCN(C4CC(c5cc(F)cc(F)c5)C4)C[C@@H]3C(=O)O)c2c1` (some centres undefined), the MIC against Staphylococcus aureus [1] is 0.25 µg/mL (≈ 0.49 µM); against Staphylococcus aureus [4] it was at most 0.0625 µg/mL; with Staphylococcus aureus [8] it was 8 µg/mL (≈ 15.7 µM); in the data set with Staphylococcus aureus [13], 8 µg/mL (≈ 15.7 µM). For the same compound, the values for the half-maximal inhibitory concentration (IC50) (in [3]; against DNA gyrase; in data set [7]) were 15 µM, 1.56 µM and 7.18 µM, respectively.

In the case of `COc1ccc2nccc([C@@H](O)CC[C@@H]3CCN(C4CC(c5cc(F)cc(F)c5F)C4)C[C@@H]3C(=O)O)c2c1` (some centres undefined), the MIC against Staphylococcus aureus [1] is 0.125 µg/mL (≈ 0.236 µM); in the data set on Staphylococcus aureus [4] it was at most 0.0625 µg/mL; against Staphylococcus aureus [8] it was 8 µg/mL (≈ 15.1 µM); in the data set with Staphylococcus aureus [13] it was 8 µg/mL (≈ 15.1 µM). The results for the IC50 (in data set [3]; at DNA gyrase; in data set [7]) were 8.4 µM, 1.56 µM and 30.9 µM, respectively.

Turning to `COc1ccc2nccc(C(O)CC[C@@H]3CCN(C[C@@H]4C[C@H]4c4ccccc4)C[C@@H]3C(=O)O)c2c1` (mixture of isomers), the figures for the IC50 in [14], in data set [5] and in data set [15] were 50 µM, 150 µM and 7.5 µM, respectively. In the data set with Staphylococcus aureus [4], this compound came in with an MIC of 1 µg/mL.

As for `O=C(O)c1cn(C2CC2)c2cc(N3CCNCC3)c(F)cc2c1=O` [CIPROFLOXACIN], the MIC90 against Streptococcus pyogenes [10] was 0.5 µg/mL (≈ 1.51 µM); against Staphylococcus aureus [12], above 64 µg/mL.
